What was measured:
[1] = target: T1, ThyX protein of H. pylori (Helicobacter pylori, UniProt O26061); assay: Tritium release from [5-3H]dUMP by purified ThyX (thymidylate synthase activity); type: biochemical; details: for inhibition of ThyX activity: result in words
T1 construct: made in house
Description: In dTMP formation, the loss of tritium from […] in the solvent is a compulsory intermediary, allowing to quantify the thymidylate-synthetase activity after removal of radioactive nucleotides from the reaction mixtures (ROBERTS, 1966). In order to tackle the biochemical mechanism, wherein ThyX could circumvent the requirement for the ThyA in the de novo synthesis of thymydilate, the purified ThyX protein was used to the same extent.
N^5,N^10—CH2H4folate was non-enzymatically formed, through incubation of 2 mM of tetrahydrofolic acid (Sigma®) with 100 mM of β-mercaptoethanol and 20 mM of formol for 30 minutes in the dark and at room temperature. […] The control reactions were achieved under analogous conditions, without tetrahydrofolic acid. […], a specific activity at 16,2 Ci/mmol (Amersham) and stopped after 60 minutes at 37° C. by two extractions with 250 μl of active carbon [10% (weight/volume) of Norit A] in 2% trichloroacetic acid so as to remove the nucleotides from the reaction mixtures. The remanent radioactivity in the supernatant was determined according to MYLLYKALLIO (2000).

[2] = tested on: transformants containing thyX in the E.coli X2913(ΔthyA) strain; details: only high trimethoprim concentrations inhibit

T1 sequence (O26061 whole entry): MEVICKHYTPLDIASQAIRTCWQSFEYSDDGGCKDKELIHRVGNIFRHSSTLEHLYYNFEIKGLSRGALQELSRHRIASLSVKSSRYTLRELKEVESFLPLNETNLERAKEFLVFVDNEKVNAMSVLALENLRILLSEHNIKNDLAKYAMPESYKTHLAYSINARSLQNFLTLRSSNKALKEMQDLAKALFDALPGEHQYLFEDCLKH

## O=c1ccn([C@@H]2O[C@H](COP(=O)(O)O)[C@@H](O)[C@H]2O)c(=O)[nH]1 [UMP]
[1]; complete test plus 500 μM of the added nucleotide, 9 μM 3H-dUMP, 60 minute incubation
  nmol of released ^3H/mg of protein (60 minute incubation): 64.4 nmol of released ^3H/mg of protein
[1]; complete test plus 500 μM of the added nucleotide, complete = 100%, 60 minute incubation
  released ^3H as % of the complete test: 102.2%
[1]; simple competition experiments
  use as substrate by the ThyX activity (competition experiments): does not use UMP as a substrate

## Cc1cn([C@H]2C[C@H](O)[C@@H](COP(=O)(O)O)O2)c(=O)[nH]c1=O [dTMP, thymidine 5′-monophosphate]
[1]
  inhibition of ThyX activity: inhibited

## Nc1nc2c(c(=O)[nH]1)N1CN(c3ccc(C(=O)N[C@@H](CCC(=O)O)C(=O)O)cc3)CC1CN2 (stereo partly shown) [CH2H4folate]
[1]; complete reaction conditions, 60 minutes incubation
  concentration sufficient for saturating the release activity of tritium: 100 µM

## O=c1[nH]c(=O)n([C@H]2C[C@H](O)[C@@H](COP(=O)(O)O)O2)cc1F [fluoro-dUMP]
[1]
  inhibition of ThyX activity: inhibitor

## COc1cc(Cc2cnc(N)nc2N)cc(OC)c1OC [trimethoprim]
[2]
  inhibition of growth of thyX transformants: inhibited
